Assay [1] deals with HT-29 (colon adenocarcinoma). The experiment in a line: Cell growth inhibition, MTT assay, HT-29, without or with verapamil. It is filed as cell-based, human. (Tetrazolium dyes change colour on reduction, which living cells bring about.)
In assay [2] the target is T1, microtubular protein isolated from calf brains (bovine brain tubulin) (Bos taurus, UniProt P81947+Q6B856).
T1 construct: from tissue; host or cells: calf (bovine) brain
The experiment in a line: Tubulin polymerization inhibition (TPI). It is filed as biochemical. The conditions noted are these: in vitro tubulin polymerization, mean ± SD.

For assay [3], the system named is microtubule network of MCF7 cells. Kind of assay: Immunofluorescence confocal microscopy of microtubule network, MCF7. In kind it is cell-based, human. As to conditions: MCF7, 24 h, 100 nM, α-tubulin immunofluorescence. On the procedure: (§1) To elucidate if the interaction of the compounds with tubulin inferred from the in vitro TPI experiments has consequences on cellular microtubules, we studied the effect of representative compounds on the microtubule network of HeLa, MCF7, and U87 MG cells 24 h after treatment via the use of immunofluorescence confocal microscopy through α-tubulin and nuclei labeling.
(§2) HeLa, MCF7, and U87 MG cells (8·10^4 cells/mL) were grown on 0.01% poly-L-lysine pre-coated square glass coverslips (22 mm^2), deposited on 6-well plates (1 coverslip/well), and incubated in complete DMEM medium (see above) at 37 °C and 5% CO2 atmosphere for 24 h. Then, the cells were incubated for 24 h in the presence or absence (negative controls) of selected compounds (10, 12, or 14) at 100 nM. After drug treatment incubation, medium was removed, and coverslips were washed three times with PBS, fixed with 4% formaldehyde in PBS for 10 min, permeabilized with 0.5% Triton X-100, (Sigma-Aldrich, St. Louis, MO, USA) in PBS for 90 s at 4 °C, blocked with 10% BSA in PBS for 30 min, and washed with PBS four times. The coverslips were incubated for 1 h with anti-α-tubulin mouse monoclonal antibody (Sigma-Aldrich, St. Louis, MO, USA), diluted 1:200 in PBS containing 3% BSA, washed four times with PBS, and then incubated in darkness with the fluorescent secondary antibody Alexa Fluor 488 goat anti-mouse IgG (Molecular Probes, Invitrogen, Eugenen, OR, USA) and diluted 1:400 in PBS containing 1% BSA for 1.5 h. The coverslips were washed four times with PBS, and a drop of ProLong™ Gold Antifade Mountant containing DAPI (ThermoFisher, Waltham, MA, USA) was added for cell nuclei staining. The samples were analyzed via confocal microscopy, which was performed by using a LEICA SP5 microscope DMI-6000V model coupled to a LEICA LAS AF software computer.

The test system of the next assay is U87 MG cells. Kind of assay: Apoptotic cell death quantification, Annexin V-FITC/PI, U87 MG. It is filed as cell-based, human. The conditions noted are these: 72 h, 100 nM; for Necrotic cells: PI+ AnV−; for Live cells: PI− AnV−. On the procedure: To characterize the cell death mechanism induced by the representative compounds 10, 12, or 14 at 100 nM on HeLa, MCF7, and U87 MG cells, dual-channel flow cytometry studies were carried out for cells in the absence (negative control) or presence of compounds 72 h after treatment. Fluorescein isothiocyanate-labeled Annexin V (FITC-AnV) and propidium iodide (PI) were used for double staining. Regarding their response to AnV and PI, cells can be identified as viable (PI−, AnV−), early apoptotic (PI−, AnV+), late apoptotic or secondary necrotic (PI+, AnV+), or necrotic (PI+, AnV−). The translocation of the phosphatidylserine from the inner to the outer cell membrane causes the response of apoptotic cells to AnV, whereas only cells suffering some kind of membrane disintegration (late apoptotic or necrotic cells) allow PI permeation.
Following the manufacturer’s guidelines, an Annexin V-FITC/PI apoptosis detection kit (Immunostep, Salamanca, Spain) was used to quantify HeLa, MCF7, or U87 MG cells. Cells were seeded in 12-well plates (5·10^4 cells/mL, 1 mL/well) and incubated in complete DMEM medium (see above) at 37 °C and 5% CO2 atmosphere for 24 h. Then, the cells were treated with selected compounds (10, 12, or 14) at 100 nM, and untreated cells were used as negative controls. Then, 72 h after incubation, the cells were harvested, centrifugated, resuspended in the Annexin V binding buffer, and incubated in darkness with Annexin V-FITC/PI for 15 min at room temperature. The samples were analyzed by using a BD Accuri™ C6 Plus Flow Cytometer (BD Biosciences), and acquired data were analyzed via BD Accuri™ C6 Software (version 1.0.264.21).

The subject of a further assay is U87 MG (glioblastoma). The experiment in a line: Cell growth inhibition, MTT assay, U87 MG. The conditions noted are these: Homo sapiens, U-87 MG. In kind it is cell-based.
In assay [4] the test system is HepG2 (hepatocellular carcinoma). The experiment in a line: Cell growth inhibition, MTT assay, HepG2. In kind it is cell-based. As to conditions: Homo sapiens.
Assay [5] relates to microtubule network of HeLa cells. The experiment in a line: Immunofluorescence confocal microscopy of microtubule network, HeLa. As to conditions: 24 h, 100 nM, α-tubulin immunofluorescence. It is filed as cell-based, human. Here is the method: as §1, §2
In assay [6] the test system is MCF7 (breast adenocarcinoma). The experiment in a line: Cell growth inhibition, MTT assay, MCF7. In kind it is cell-based. The conditions noted are these: Homo sapiens.
The mark [7] stands for this setting: Homo sapiens, HT-29, 72 h after drug exposure.
Where [8] appears, read: Homo sapiens, HT-29, mean ± SD, Table S1.
Setting [9] is: mean ± SD, Table S1, in the presence of verapamil (10 µM).

T1 sequence (Q6B856 whole entry): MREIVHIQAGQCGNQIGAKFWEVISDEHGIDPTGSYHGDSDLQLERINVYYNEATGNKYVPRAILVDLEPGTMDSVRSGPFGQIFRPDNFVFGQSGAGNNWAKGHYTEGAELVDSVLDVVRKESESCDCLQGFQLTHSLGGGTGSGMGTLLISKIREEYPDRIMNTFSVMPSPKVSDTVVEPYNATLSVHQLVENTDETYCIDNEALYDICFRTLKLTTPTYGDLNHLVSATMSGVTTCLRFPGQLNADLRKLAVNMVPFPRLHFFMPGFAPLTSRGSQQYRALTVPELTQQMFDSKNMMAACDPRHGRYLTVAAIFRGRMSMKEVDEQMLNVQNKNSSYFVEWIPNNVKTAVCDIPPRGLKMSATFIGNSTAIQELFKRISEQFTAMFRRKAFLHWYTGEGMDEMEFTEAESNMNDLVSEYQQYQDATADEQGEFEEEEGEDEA
T1 sequence (P81947 whole entry): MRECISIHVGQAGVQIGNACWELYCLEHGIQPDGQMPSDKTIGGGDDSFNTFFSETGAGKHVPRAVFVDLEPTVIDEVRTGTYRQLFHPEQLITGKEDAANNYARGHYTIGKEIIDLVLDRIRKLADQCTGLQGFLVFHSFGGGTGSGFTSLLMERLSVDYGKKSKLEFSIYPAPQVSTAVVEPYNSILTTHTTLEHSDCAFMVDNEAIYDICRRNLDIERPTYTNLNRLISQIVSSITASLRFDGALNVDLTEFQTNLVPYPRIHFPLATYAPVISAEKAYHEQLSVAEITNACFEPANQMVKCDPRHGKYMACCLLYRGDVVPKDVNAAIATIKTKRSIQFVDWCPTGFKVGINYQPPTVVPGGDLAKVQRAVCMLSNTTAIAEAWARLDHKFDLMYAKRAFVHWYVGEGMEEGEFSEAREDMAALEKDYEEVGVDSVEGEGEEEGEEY

What is called IC50 is the concentration that inhibits the measured activity by half. On to `CSc1cc(-c2nnnn2-c2ccc3c(ccn3C)c2)cc(Cl)n1` [Compound 10, 5-(5-(2-chloro-6-(methylsulfanyl)pyridin-4-yl)-1H-tetrazol-1-yl)-1-methyl-1H-indole], for which the IC50 was found to be 59 nM in assay [1] (setting [7]); 59.4 ± 0.5 nM in assay [1] (setting [8]); 61.4 ± 0.4 nM in assay [1] (setting [9]); 1500 ± 100 nM in assay [2]; 22 nM with U87 MG (glioblastoma) (72 h after drug exposure); 22.2 ± 0.1 nM with U87 MG (glioblastoma) (mean ± SD, Table S1). Besides, the half-maximal inhibitory concentration (IC50) in assay [4] (72 h after drug exposure) worked out at 37 nM; in assay [4] (mean ± SD, Table S1) it was 37.1 ± 0.2 nM; in assay [6] (72 h after drug exposure) it was 38 nM; in assay [6] (mean ± SD, Table S1), 38.4 ± 0.4 nM. In addition, the “effect on microtubule network” value in assay [3] and in assay [5] was “severe microtubule network disruption” each time. Also, the apoptotic response in the assay with U87 MG cells is 70–74%. Moreover, the Necrotic cells with U87 MG cells is given as 15–19%. For the same compound, the Live cells in the assay on U87 MG cells is listed as 9–15%.
`Cn1cc(C=O)c2cc(-n3nnnc3-c3cc(Cl)nc(Cl)c3)ccc21` [Compound 12, 5-(5-(2,6-dichloropyridin-4-yl)-1H-tetrazol-1-yl)-1-methyl-1H-indole-3-carbaldehyde]: the IC50 in assay [1] (setting [7]) is 51 nM; in assay [1] (setting [8]), 51.3 ± 0.3 nM; in assay [1] (setting [9]) it was 56.5 ± 0.5 nM; in assay [2] it was 1300 ± 100 nM; in the assay on U87 MG (glioblastoma) (72 h after drug exposure) it was 17 nM; in the assay with U87 MG (glioblastoma) (mean ± SD, Table S1), 17.1 ± 0.1 nM. Besides, the IC50 in assay [4] (72 h after drug exposure) worked out at 36 nM; in assay [4] (mean ± SD, Table S1) it was 36.4 ± 0.2 nM; in assay [6] (72 h after drug exposure), 37 nM; in assay [6] (mean ± SD, Table S1) it was 37.3 ± 0.2 nM. In addition, the “effect on microtubule network” value in assay [3] and in assay [5] was “severe microtubule network disruption” throughout. The apoptotic response in the assay with U87 MG cells is 70–74%. For the same compound, in the assay on U87 MG cells, the Necrotic cells is recorded as 15–19%. The Live cells with U87 MG cells is on record as 9–15%.
Take `CSc1cc(-c2nnnn2-c2ccc3c(c2)c(C=O)cn3C)cc(Cl)n1` [Compound 14, 5-(5-(2-chloro-6-(methylsulfanyl)pyridin-4-yl)-1H-tetrazol-1-yl)-1-methyl-1H-indole-3-carbaldehyde]: the IC50 in assay [1] (setting [7]) amounted to 31 nM; in assay [1] (setting [8]) it was 31.1 ± 0.3 nM; in assay [1] (setting [9]), 33.1 ± 0.4 nM; in assay [2] it was 800 ± 100 nM; with U87 MG (glioblastoma) (72 h after drug exposure), 12 nM; in assay [4] (72 h after drug exposure) it was 31 nM. Moreover, the half-inhibitory concentration (IC50) in assay [4] (mean ± SD, Table S1) was 31.1 ± 0.3 nM; in assay [6] (72 h after drug exposure), 26 nM; in assay [6] (mean ± SD, Table S1), 26.2 ± 0.1 nM. In addition, the “effect on microtubule network” value in assay [3] and in assay [5] was “severe microtubule network disruption” throughout. Moreover, the apoptotic response with U87 MG cells is given as 70–74%. Moreover, the Necrotic cells in the assay on U87 MG cells is 15–19%. In addition, the Live cells with U87 MG cells is recorded as 9–15%.

(Values after article PMC10342533, “Novel Tetrazole Derivatives Targeting Tubulin Endowed with Antiproliferative Activity against Glioblastoma Cells” (International Journal of Molecular Sciences, 2023).)
